Assay results as given in US20200390767A1, “Formulations of 4-(7-Hydroxy-2-isopropyl-4-oxo-4H-quinazolin-3-yl)-benzonitrile” (NOVARTIS AG, priority 2019, published 2020).
Converted amounts (≈) assume the structure as drawn. “And” between values parts separate entries of the source, which are not always exact repeats. Equal values may be shown once.

How the values were obtained:
TRPV1 receptor = TRPV1 receptor (Homo sapiens, UniProt Q8NER1); experiment: TRPV1 receptor activity; assay type: cell-based
Sequence of TRPV1 receptor (Q8NER1 whole entry): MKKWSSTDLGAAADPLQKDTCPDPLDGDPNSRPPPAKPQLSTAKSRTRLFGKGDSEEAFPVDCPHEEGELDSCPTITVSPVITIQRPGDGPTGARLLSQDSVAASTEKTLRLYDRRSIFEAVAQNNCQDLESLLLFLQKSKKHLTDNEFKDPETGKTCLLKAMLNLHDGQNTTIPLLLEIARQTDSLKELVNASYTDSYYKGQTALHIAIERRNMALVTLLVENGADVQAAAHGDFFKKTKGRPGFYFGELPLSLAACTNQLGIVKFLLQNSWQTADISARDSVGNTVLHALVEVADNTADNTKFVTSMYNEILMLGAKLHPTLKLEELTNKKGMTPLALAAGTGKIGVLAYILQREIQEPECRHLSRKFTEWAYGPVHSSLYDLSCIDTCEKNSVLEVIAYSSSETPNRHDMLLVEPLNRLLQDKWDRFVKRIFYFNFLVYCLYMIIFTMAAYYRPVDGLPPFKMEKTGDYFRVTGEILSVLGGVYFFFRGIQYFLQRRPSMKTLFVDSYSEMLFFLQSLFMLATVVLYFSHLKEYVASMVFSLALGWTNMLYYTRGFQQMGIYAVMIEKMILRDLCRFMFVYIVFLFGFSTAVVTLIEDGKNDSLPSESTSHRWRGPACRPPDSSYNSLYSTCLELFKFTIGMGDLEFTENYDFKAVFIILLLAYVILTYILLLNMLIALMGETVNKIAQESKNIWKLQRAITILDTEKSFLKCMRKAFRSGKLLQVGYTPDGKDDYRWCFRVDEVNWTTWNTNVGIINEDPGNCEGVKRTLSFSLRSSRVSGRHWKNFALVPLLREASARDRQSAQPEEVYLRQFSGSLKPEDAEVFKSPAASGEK
Protocol: “TRPV1 receptor” refers to the Transient Receptor Potential Vanilloid 1 that has been characterized through molecular cloning and pharmacology. See e.g., Caterina M J, et al., Nature 1997; 389:816-824. TRPV1 receptor activity is measured as described in WO2005/120510, hereby incorporated by reference in its entirety.

healthy volunteers = experiment: First in human study, safety (SAD and MAD adverse events); assay type: in vivo; conditions: 8 times daily for 7 days
Protocol: This example describes a first-in-human study of compound I conducted in healthy volunteers. A total of 54 subjects were administered to study medication. Part 1 of the first in human study administered single ascending doses of 0.15%, 1.5%, 2.5% w/v (1 drop) of compound I in an eye drop.
Part 2 tested multiple ascending doses (MAD) of compound I, administering (i) 1 drop of 0.15%, 1.5%, 2.5%, 4 times daily (every 6 hours) for 7 days or (ii) 1 drop of 2.5%, 8 times daily (every 3 hours) for 7 days (supra-therapeutic dose) as eye drops.
Safety assessments: Safety assessments consisted of collecting all adverse events (AEs), serious adverse events (SAEs), including systemic and ocular adverse events, along with their severity and relationship to study drug. Systemic safety assessments included regular monitoring of hematology, blood chemistry and urinalysis performed at study center and regular assessments of physical examination, vital signs (systolic and diastolic blood pressure, pulse rate, and body temperature), ECG, pregnancy and assessments of fertility and hand immersion test at 49° C. during MAD part. Ocular safety assessments included early treatment diabetic retinopathy study (ETDRS) visual acuity, intraocular pressure, slit-lamp biomicroscopy, corneal staining and dilated fundus exam. […]

[1] = Solubility of compound I in solvents; assay type: physicochemical
Description: As noted above, compound I is sparingly soluble in various media.

epithelial wound = experiment: PRK clinical study, size of epithelial defect by slit lamp exam; assay type: in vivo, human
Description: Adverse events and serious adverse events included an assessment of both systemic and ocular assessments. Systemic safety assessments included regular assessments of height and weight, vital signs, reporting medication errors including misuse/abuse, pregnancy reporting and early phase safety monitoring. The misuse/abuse, pregnancy reporting and early phase safety monitoring were not assessed for the study. Ocular safety assessments included the following: • Best-corrected visual acuity (BCVA) and uncorrected visual acuity (UCVA): Was measured at each visit using an ETDRS visual acuity chart at 4 meters (13 feet) or 1 meter (for patients that cannot read the 4 meter chart). The BCVA scoring was done based on the number of correctly read letters plus 30. If visual acuity was so poor that the patient could not read any of the largest letters at 1 meter, count fingers and hand movement vision and light perception was tested. • Intraocular Pressure (TOP): IOP measurements were conducted with applanation tonometry or Tonopen. • Dilated fundus exam: The dilated fundus examination included ophthalmoscopic assessments of the vitreous, retina/macula/choroid, and optic nerve. Evaluations for retinal tear/detachment, retinal hemorrhage, vitreous hemorrhage density, vitreous haze grading and abnormal findings were done and scored according to grading criteria. • Ocular hyperemia: Conjunctival redness of the bulbar conjunctiva in each eye at the slit lamp according to the McMonnies redness scale was graded. […] By adjusting the calibrated slit beam width and height, the maximum horizontal (wound width) and vertical dimensions (wound height) of the surgical epithelial wound was estimated. The evaluation was performed until wound closure and report of wound size as 0 horizontal and 0 vertical dimensions. • Slit-lamp biomicroscopy: Ocular signs (eyelids/conjunctiva, cornea, lens, and iris/anterior chamber) was assessed in both eyes by slit lamp biomicroscopy according to the grading criteria. • Blink rate: A blink was defined as a bilateral paroxysmal closure of the eyelids (duration <1 second) in the absence of a provoking external stimulus. Each blink assessment lasted for 2 min (or as close to 2 minutes as possible with minimum time 1 minute) and the obtained blink rate was averaged to calculate blink rate in blinks/min. • Tear production (Schirmer's test without anesthesia): The test was performed without anesthetic in both eyes simultaneously. Tear secretion was measured in millimeters of the length of strip wetted by tears. […] The strip was wetted with 1 drop of sterile saline and flicked to remove excess saline. The patient blinked several times to ensure dispersion of the dye throughout the tear film prior to grading on a scale of 0-3 (0=Normal, No staining; 1=Mild, Superficial stippling micropunctate staining; 2=Moderate, Macropunctate staining with some coalescent areas and 3=Severe, Numerous coalescent macropunctate areas and/or patches) for each of 5 zones (central plus 4 quadrants).
Size of epithelial defect by slit lamp exam: In order to assess the rate of wound healing after administration of compound I, the size of the epithelial defect in both compound I and Vehicle treated populations was measured. The elliptical area of epithelial wound size was calculated as follows: Area (mm2)=width×height×pi, from the width and height of the epithelial defect measured at the slit lamp. The difference in epithelial wound area between compound I and Vehicle was not noticeably different at any time point except at Day 2 post-PRK surgery (all p-values for the difference in area was >0.35). On Day 2 (24 hours post-operative), the difference in average epithelial defect area between patients treated with compound I vs. Vehicle was 11.23 mm^2 (p value=0.034). This difference was not clinically significant in the immediate post-operative period. […]

[2] = First in human study, plasma pharmacokinetics; assay type: in vivo
Description: Accumulation of compound I at steady-state was minor (˜1.7-fold) following administration of 0.15%, 1.5% or 2.5% suspension 4 times daily and also minor (˜1.3-fold) following 2.5% 8 times daily for 7 days.

temperature sensitivity = experiment: First in human study, hand immersion test at 49° C.; assay type: in vivo; conditions: water at 49° C., MAD part
Protocol: Safety assessments: Safety assessments consisted of collecting all adverse events (AEs), serious adverse events (SAEs), including systemic and ocular adverse events, along with their severity and relationship to study drug. Systemic safety assessments included regular monitoring of hematology, blood chemistry and urinalysis performed at study center and regular assessments of physical examination, vital signs (systolic and diastolic blood pressure, pulse rate, and body temperature), ECG, pregnancy and assessments of fertility and hand immersion test at 49° C. during MAD part. Ocular safety assessments included early treatment diabetic retinopathy study (ETDRS) visual acuity, intraocular pressure, slit-lamp biomicroscopy, corneal staining and dilated fundus exam.
For the hand immersion test, all subjects in the treatment cohorts withdrew their hand from water at 49° C. at a time interval between 0 to ≤50 secs.

With `CC(C)c1nc2cc(O)ccc2c(=O)n1-c1ccc(C#N)cc1` [Compound I, 4-(7-hydroxy-2-isopropyl-4-oxo-4H-quinazolin-3-yl)-benzonitrile] as the compound, how does the IC50 (TRPV1 receptor) read?
Its IC50 is 30 nM.

And the “dose limiting adverse events” value (healthy volunteers; 2.5%)?
The value was “No dose limiting adverse events were identified”.

And the “Maximum Tolerated Dose (MTD)” value (healthy volunteers; eye drops, healthy volunteers)?
Its value is 2.5%.

And the solubility ([1]; isopropyl myristate, oil or lipid, solvent: Isopropyl Myrisate)?
Its solubility is 90 µg/mL (≈ 295 µM).

And the solubility ([1]; oil or lipid, solvent: Medium-Chain Triglycerides (Miglyol 812))?
Its solubility is 100 µg/mL (≈ 328 µM).

And the solubility ([1]; oil or lipid, solvent: Mineral Oil)?
The solubility was 30 µg/mL (≈ 98.3 µM).

And the solubility ([1]; oil or lipid, solvent: Oleyl Alcohol)?
Its solubility is 120 µg/mL (≈ 393 µM).

And the solubility ([1]; organic solvent or mixture, solvent: Diisopropyl Adipate)?
The solubility was 160 µg/mL (≈ 524 µM).

And the solubility ([1]; organic solvent or mixture, solvent: Ethanol)?
The solubility was 790 µg/mL (≈ 2590 µM).

What about the solubility ([1]; organic solvent or mixture, solvent: Hexylene Glycol) of the same compound?
The solubility was 280 µg/mL (≈ 917 µM).

What about the solubility ([1]; organic solvent or mixture, solvent: Isopropanol) of the same compound?
Its solubility is 330 µg/mL (≈ 1080 µM).

What about the solubility ([1]; organic solvent or mixture, solvent: Isosorbide) of the same compound?
The solubility was 340 µg/mL (≈ 1110 µM).

What about the solubility ([1]; organic solvent or mixture, solvent: Polyethylene Glycol 200) of the same compound?
Its solubility is 1620 µg/mL (≈ 5310 µM).

What about the solubility ([1]; organic solvent or mixture, solvent: Polyethylene Glycol 300) of the same compound?
The solubility was 2040 µg/mL (≈ 6680 µM).

What about the solubility ([1]; organic solvent or mixture, solvent: Polyethylene Glycol 400) of the same compound?
Its solubility is 1660 µg/mL (≈ 5440 µM).

What about the solubility ([1]; organic solvent or mixture, solvent: Propylene Carbonate) of the same compound?
The solubility was 400 µg/mL (≈ 1310 µM).

And the solubility ([1]; organic solvent or mixture, solvent: Propylene Glycol)?
The solubility was 1680 µg/mL (≈ 5500 µM).

What about the solubility ([1]; solvent: Water) of the same compound?
The solubility was 10 µg/mL (≈ 32.8 µM).

And the “Epithelial Wound Size, Area, Difference compound I-Vehicle” value (epithelial wound; Day 1)?
Its value is 2.98 (27.33) mm^2.

And the “Epithelial Wound Size, Area, raw mean (SD)” value (“Epithelial Wound Size … (SD)” for short) (epithelial wound; Day 1)?
Its value is 220.15 (32.26) mm^2.

And the “Epithelial Wound Size, Area, Difference compound I-Vehicle” value (epithelial wound; Day 2)?
The value was 11.23 mm^2 and 11.23 (32.30) mm^2.

And the “Epithelial Wound Size … (SD)” value (epithelial wound; Day 2)?
Its value is 83.02 (32.08) mm^2.

What about the “Epithelial Wound Size, Area, Difference compound I-Vehicle” value (epithelial wound; Day 3) of the same compound?
The value was 1.02 (8.78) mm^2.

And the “Epithelial Wound Size … (SD)” value (epithelial wound; Day 3)?
The value was 6.75 (12.66) mm^2.

And the “Epithelial Wound Size, Area, Difference compound I-Vehicle” value (epithelial wound; Day 4)?
Its value is 0.31 (2.11) mm^2.

And the “Epithelial Wound Size … (SD)” value (epithelial wound; Day 4)?
The value was 0.39 (2.04) mm^2.

And the “Epithelial Wound Size, Area, Difference compound I-Vehicle” value (epithelial wound; Day 8)?
The value was 0.00 (0.00) mm^2.

What about the “Epithelial Wound Size … (SD)” value (epithelial wound; Day 8) of the same compound?
The value was 0.00 (0.00) mm^2.

And the “wound healing compared to Vehicle” value (epithelial wound; human, in vivo)?
The value was “no delay in wound healing”.

What about the Accumulation at steady-state ([2]; 0.15%, 1.5% or 2.5% suspension 4 times daily) of the same compound?
The Accumulation at steady-state was roughly 1.7 fold.

And the Accumulation at steady-state ([2]; 2.5%, 8 times daily for 7 days)?
Its Accumulation at steady-state is roughly 1.3 fold.

What about the “increase in systemic exposure with dose” value ([2]; increase in dose from 0.15% to 2.5%) of the same compound?
The value was “less than dose-proportional increase”.

What about the “hand immersion time versus vehicle” value (temperature sensitivity) of the same compound?
Its value is “no meaningful change in immersion time”.
